Results reported in article PMC4121658 (Anesthesiology, 2014).

How the values were obtained:
[1] = Lethality after intravenous bolus injection; type: in vivo, Sprague-Dawley rats; details: Sprague-Dawley, rat, in vivo, iv
rats [2] = assay: Lethality after intravenous bolus injection; type: in vivo, Sprague-Dawley rats; details: for rats died: intravenous bolus; for Therapeutic Index: LD50/Hypnotic ED50, rats
rats [3] = details: larger number of Sprague Dawley rats; cited from earlier work
[4] = target: α1(L264T)β3γ2L GABAA receptors (Homo sapiens, UniProt P14867+P28472, L291T); assay: cell-based; type: cell-based; details: for Surge current amplitude, of the directly activated peak current: 1000 μM drug, upon washout, α1(L264T)β3γ2L; for Subunit Selectivity Ratio: EC50 β1 subunit/EC50 β3 subunit, ± SD by error propagation
Chain of α1(L264T)β3γ2L GABAA receptors (P14867 28-456 L291T): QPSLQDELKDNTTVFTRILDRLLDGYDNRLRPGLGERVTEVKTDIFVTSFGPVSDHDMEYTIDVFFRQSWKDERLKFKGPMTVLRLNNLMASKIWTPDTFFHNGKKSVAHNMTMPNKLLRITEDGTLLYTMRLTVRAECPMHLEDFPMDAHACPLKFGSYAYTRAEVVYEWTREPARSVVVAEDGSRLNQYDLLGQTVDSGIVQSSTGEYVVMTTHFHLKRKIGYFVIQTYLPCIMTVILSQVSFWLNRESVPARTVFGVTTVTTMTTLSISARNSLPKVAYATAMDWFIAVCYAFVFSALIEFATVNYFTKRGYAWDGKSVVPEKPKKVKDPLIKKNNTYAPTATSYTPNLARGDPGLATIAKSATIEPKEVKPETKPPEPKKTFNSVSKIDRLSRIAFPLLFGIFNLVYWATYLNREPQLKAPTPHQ
Chain of α1(L264T)β3γ2L GABAA receptors (P28472 26-473): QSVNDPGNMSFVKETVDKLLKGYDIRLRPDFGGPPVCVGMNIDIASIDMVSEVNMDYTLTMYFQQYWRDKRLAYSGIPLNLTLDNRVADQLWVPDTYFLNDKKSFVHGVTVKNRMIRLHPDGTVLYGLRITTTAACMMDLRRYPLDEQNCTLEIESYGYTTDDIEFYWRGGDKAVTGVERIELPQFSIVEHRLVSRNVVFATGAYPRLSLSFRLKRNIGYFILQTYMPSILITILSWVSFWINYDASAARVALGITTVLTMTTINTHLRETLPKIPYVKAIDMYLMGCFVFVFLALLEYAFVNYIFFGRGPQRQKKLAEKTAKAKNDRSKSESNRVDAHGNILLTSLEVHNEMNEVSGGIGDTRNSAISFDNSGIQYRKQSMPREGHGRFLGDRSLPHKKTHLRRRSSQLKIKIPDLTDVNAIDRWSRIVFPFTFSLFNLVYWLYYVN
Chain of α1(L264T)β3γ2L GABAA receptors (P18507 40-475 partner): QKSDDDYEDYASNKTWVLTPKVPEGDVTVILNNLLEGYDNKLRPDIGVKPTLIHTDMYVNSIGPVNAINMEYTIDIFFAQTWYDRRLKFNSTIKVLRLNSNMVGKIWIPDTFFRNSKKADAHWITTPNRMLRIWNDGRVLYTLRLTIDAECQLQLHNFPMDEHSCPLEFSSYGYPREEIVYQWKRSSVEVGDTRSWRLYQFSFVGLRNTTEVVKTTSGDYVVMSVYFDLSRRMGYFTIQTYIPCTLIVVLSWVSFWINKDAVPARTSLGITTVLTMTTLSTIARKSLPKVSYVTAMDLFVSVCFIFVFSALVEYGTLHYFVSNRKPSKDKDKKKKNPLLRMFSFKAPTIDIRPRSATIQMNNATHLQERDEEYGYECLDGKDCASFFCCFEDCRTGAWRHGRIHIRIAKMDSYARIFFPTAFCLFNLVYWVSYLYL

[5] = target: α1(L264T)β1γ2L GABAA receptors (Homo sapiens, UniProt P14867+P18505, L291T); type: cell-based; details: for Surge current amplitude, of the directly activated peak current: 1000 μM drug, upon washout, α1(L264T)β1γ2L
Chain of α1(L264T)β1γ2L GABAA receptors (P14867 28-456 L291T): as the sequence (P14867 28-456 L291T) above
Chain of α1(L264T)β1γ2L GABAA receptors (P18505 26-474): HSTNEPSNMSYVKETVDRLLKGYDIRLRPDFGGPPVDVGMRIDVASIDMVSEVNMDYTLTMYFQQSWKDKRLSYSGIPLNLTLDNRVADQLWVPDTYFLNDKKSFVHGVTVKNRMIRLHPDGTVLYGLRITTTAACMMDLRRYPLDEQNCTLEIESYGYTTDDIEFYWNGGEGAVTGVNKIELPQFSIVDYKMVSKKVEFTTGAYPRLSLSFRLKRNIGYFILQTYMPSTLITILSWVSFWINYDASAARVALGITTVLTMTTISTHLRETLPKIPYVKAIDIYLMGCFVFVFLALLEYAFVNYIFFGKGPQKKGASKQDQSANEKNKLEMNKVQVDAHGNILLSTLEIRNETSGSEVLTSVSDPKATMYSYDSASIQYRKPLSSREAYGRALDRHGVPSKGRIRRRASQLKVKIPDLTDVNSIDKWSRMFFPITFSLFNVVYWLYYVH
Chain of α1(L264T)β1γ2L GABAA receptors (P18507 40-475 partner): as the sequence (P18507 40-475 partner) above

adrenocortical function = assay: ACTH1–24 stimulation test, in vivo adrenocortical inhibitory potency; design: species or system Sprague-Dawley rats; details: Adrenocortical ID50/Hypnotic ED50, rats

SMILES	LD50 [1] [mg/kg]	LD50 ([1]; 20 mg/kg) [mg/kg]	rats died (rats [2]; 20 mg/kg dose)	LD50, previously reported value (rats [3]) [mg/kg]	EC50 [4] [µM]	rats died (rats [2]; 30 mg/kg dose)	Surge current amplitude, of the directly activated peak current [4] [%]	Subunit Selectivity Ratio [4]	EC50 [5] [µM]	Surge current amplitude, of the directly activated peak current [5] [%]	rats died (rats [2]; 50 mg/kg dose)	Therapeutic Index (rats [2])	Adrenocortical Toxicity Index (adrenocortical function)
CCOC(=O)c1cncn1[C@H](C)c1ccccc1 [R-etomidate, R-ethyl 1-(1-phenylethyl)-1H-imidazole-5-carboxylate, reference compound]	15	20	1/2	20.4									
CC(C)c1cccc(C(C)C)c1O [propofol, reference compound]					7.58 ± 0.83								
CCOC(=O)c1cncn1[C@@H](C)c1ccccc1 [S-etomidate, S-ethyl 1-(1-phenylethyl)-1H-imidazole-5-carboxylate, reference compound]	25					3/3							
CCOC(=O)c1cncn1C1(c2ccccc2)CC1 [cyclopropyl etomidate, ethyl 1-(1-phenylcyclopropyl)-1H-imidazole-5-carboxylate]	50				67.6 ± 8.1		61.5 ± 6.9	23.5 ± 3.5	1590 ± 140	73.0 ± 38.5	2/4	10	0.38 ± 0.08
CCOC(=O)c1cncn1Cc1ccccc1 [dihydrogen etomidate, ethyl 1-benzyl-1H-imidazole-5-carboxylate]	40				161 ± 13		3 ± 2	2.48 ± 0.27	400 ± 28	3 ± 2	3/3	8	0.52 ± 0.12
